Test results as given in ChEMBL document CHEMBL1201862, “PubChem BioAssay data set” (2004).
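Method: 48-hour compound exposure of cells in 96-well plates, five concentrations, linear interpolation of endpoints. The concentration for 50% growth inhibition is given as GI50.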 The source made the active and inactive calls. Cut-off read from the data, not from the text of the source: active = GI50 up to about 1.1 µM and inactive = higher.

What was measured:
Test in all cases: DTP human tumour cell line panel, 48 h
PC-3 = test system: PC-3
MDA-MB-231 = test system: MDA-MB-231
CCRF-CEM = test system: CCRF-CEM
HCT-15 = test system: HCT-15
SNB-19 = test system: SNB-19
SR = test system: SR
UACC-62 = test system: UACC-62
UO-31 = test system: UO-31
SW-620 = test system: SW-620
SN12C = test system: SN12C
786-0 = test system: 786-0
K562 = test system: K562
HL-60 = test system: HL-60
OVCAR-4 = test system: OVCAR-4
A549 = test system: A549
HOP-92 = test system: HOP-92
ACHN = test system: ACHN
HT-29 = test system: HT-29
NCI-H226 = test system: NCI-H226

Row | SMILES | GI50 (PC-3) | GI50 (MDA-MB-231) | GI50 (CCRF-CEM) | GI50 (HCT-15) | GI50 (SNB-19) | GI50 (SR) | GI50 (UACC-62) | GI50 (UO-31) | GI50 (SW-620) | GI50 (SN12C) | GI50 (786-0) | GI50 (K562) | GI50 (HL-60) | GI50 (OVCAR-4) | GI50 (A549) | GI50 (HOP-92) | GI50 (ACHN) | GI50 (HT-29) | GI50 (NCI-H226)
1 | CCOC(=O)Nc1nn(C)/c(=N/Cc2ccccc2)s1 | > 100 µM (inactive) | > 100 µM (inactive) | > 100 µM (inactive) | > 100 µM | > 100 µM (inactive) | > 100 µM (inactive) | > 100 µM (inactive) | 33.4 µM (inactive) | > 100 µM (inactive) | > 100 µM (inactive) | > 100 µM (inactive) | > 100 µM (inactive) | > 100 µM (inactive) | > 100 µM (inactive) | > 100 µM (inactive) | > 100 µM (inactive) | > 100 µM (inactive) | – | –
2 | N#Cc1nc(-c2cnccn2)oc1N | > 100 µM (inactive) | > 100 µM (inactive) | > 100 µM (inactive) | > 100 µM | > 100 µM (inactive) | > 100 µM (inactive) | > 100 µM (inactive) | 62.5 µM (inactive) | > 100 µM (inactive) | > 100 µM (inactive) | > 100 µM (inactive) | > 100 µM (inactive) | > 100 µM (inactive) | – | > 100 µM (inactive) | > 100 µM (inactive) | > 100 µM (inactive) | > 100 µM (inactive) | –
3 | CC1COC(c2cn[nH]c2C(N)=O)C1O (stereo not drawn) | > 100 µM (inactive) | > 100 µM (inactive) | > 100 µM (inactive) | > 100 µM | > 100 µM (inactive) | > 100 µM (inactive) | > 100 µM (inactive) | > 100 µM (inactive) | > 100 µM (inactive) | > 100 µM (inactive) | > 100 µM (inactive) | > 100 µM (inactive) | > 100 µM (inactive) | > 100 µM (inactive) | > 100 µM (inactive) | – | > 100 µM (inactive) | > 100 µM (inactive) | > 100 µM (inactive)
4 | C=Cc1ccccc1C1(O)C=CC(OC)(OC)C=C1 | 10.1 µM (inactive) | 10.5 µM (inactive) | 2.94 µM (inactive) | 3.53 µM | 15.8 µM (inactive) | 2.65 µM (inactive) | 4.51 µM (inactive) | 7.24 µM (inactive) | 3.8 µM (inactive) | 8.24 µM (inactive) | 5.04 µM (inactive) | 7.6 µM (inactive) | 3.4 µM (inactive) | 17.8 µM (inactive) | 17.3 µM (inactive) | – | 12.4 µM (inactive) | 3.57 µM (inactive) | 30.5 µM (inactive)
5 | COc1ccc(-c2nc3ncccn3c2-c2ccc(SC)cc2)cc1 | 3.13 µM (inactive) | 4.24 µM (inactive) | 2.28 µM (inactive) | 1.51 µM | 1.19 µM (inactive) | 0.507 µM (active) | 0.916 µM (active) | 4.46 µM (inactive) | 1.48 µM (inactive) | 3.92 µM (inactive) | 4.59 µM (inactive) | 0.869 µM (active) | 1.73 µM (inactive) | 8.69 µM (inactive) | 2.88 µM (inactive) | 7.18 µM (inactive) | 7.57 µM (inactive) | 3.09 µM (inactive) | –
6 | c1ccc2c(-c3cnc(-c4c[nH]c5ccccc45)cn3)c[nH]c2c1 | 38 µM (inactive) | 91 µM (inactive) | – | 58.6 µM | 58.7 µM (inactive) | 30 µM (inactive) | 32.8 µM (inactive) | 39.5 µM (inactive) | 18.9 µM (inactive) | 31.4 µM (inactive) | 38.1 µM (inactive) | 18.8 µM (inactive) | – | > 100 µM (inactive) | > 100 µM (inactive) | 28.6 µM (inactive) | 65.5 µM (inactive) | – | –
7 | COc1ccc(C2=C(OC(C)=O)c3cccn3-c3ccc(Cl)cc3S2)cc1 | 4.69 µM (inactive) | 3.72 µM (inactive) | 3.43 µM (inactive) | 3.62 µM | – | 2.33 µM (inactive) | 4.48 µM (inactive) | – | 4.06 µM (inactive) | 3.74 µM (inactive) | 3.85 µM (inactive) | 2.4 µM (inactive) | 1.59 µM (inactive) | 6.22 µM (inactive) | 5.51 µM (inactive) | 1.3 µM (inactive) | – | 3.75 µM (inactive) | –
8 | O=C1Nc2ccc(S(=O)(=O)O)cc2/C1=N/Nc1ccccc1[N+](=O)[O-] | > 100 µM (inactive) | > 100 µM (inactive) | – | 84.1 µM | > 100 µM (inactive) | > 100 µM (inactive) | 35 µM (inactive) | > 100 µM (inactive) | > 100 µM (inactive) | > 100 µM (inactive) | > 100 µM (inactive) | 5.64 µM (inactive) | – | > 100 µM (inactive) | > 100 µM (inactive) | > 100 µM (inactive) | > 100 µM (inactive) | > 100 µM (inactive) | > 100 µM (inactive)
9 | CCCCCCC(O)C(O)CCC(O)C1CCC(CCCCC(O)CC2=CC(C)OC2=O)O1 (stereo not drawn) [ACETOGENINS] | 2.78 µM (inactive) | 1.2 µM (inactive) | 3.58 µM (inactive) | 4.53 µM | 2.74 µM (inactive) | 1.69 µM (inactive) | 2.06 µM (inactive) | 2.06 µM (inactive) | 4.04 µM (inactive) | 3.08 µM (inactive) | 6.58 µM (inactive) | 1.82 µM (inactive) | – | 17.5 µM (inactive) | 1.79 µM (inactive) | 4.88 µM (inactive) | 1.19 µM (inactive) | 2.33 µM (inactive) | 1.74 µM (inactive)
